In ChEMBL document CHEMBL1255186, “A novel 18F-labeled pyridyl benzofuran derivative for imaging of β-amyloid plaques in Alzheimer's brains” (Bioorg Med Chem Lett, 2010):
Calls of active or inactive are those of the source. The rule behind the calls is not given here.

Tests used:
Cortex = assay: Reduction of amyloid beta40 level in Tg2576 mouse cortex at 11.1 MBq; assay type: functional, tissue-based; details: 11.1 M, tested as the 18F-labelled form
Mus musculus [1] = species: Mus musculus; assay: Reduction of amyloid beta40 level in Tg2576 mouse entorhinal cortex at 11.1 MBq; assay type: functional, tissue-based; details: 11.1 M, tested as the 18F-labelled form
Mus musculus [2] = species: Mus musculus; assay: Reduction of amyloid beta40 level in Tg2576 mouse dentate gyrus at 11.1 MBq; assay type: functional, tissue-based; details: 11.1 M, tested as the 18F-labelled form
Hippocampus = assay: Reduction of amyloid beta40 level in Tg2576 mouse hippocampus at 11.1 MBq; assay type: functional, tissue-based; details: 11.1 M, tested as the 18F-labelled form
[3] = Displacement of [125I]IMPY from amyloid beta 1-42
Blood [4] = assay: Biodistribution in mouse blood at 444 kBq/50 uL after 2 mins; assay type: ADME, organism-based; details: in vivo
Brain [5] = assay: Biodistribution in mouse brain at 444 kBq/50 uL after 2 mins; assay type: ADME, organism-based; details: in vivo
Bone [6] = assay: Biodistribution in mouse bone at 444 kBq/50 uL after 2 mins; assay type: ADME, organism-based, Bone element; details: in vivo
Blood [7] = assay: Biodistribution in mouse blood at 444 kBq/50 uL after 10 mins; assay type: ADME, organism-based; details: in vivo
Brain [8] = assay: Biodistribution in mouse brain at 444 kBq/50 uL after 10 mins; assay type: ADME, organism-based; details: in vivo
Bone [9] = assay: Biodistribution in mouse bone at 444 kBq/50 uL after 10 mins; assay type: ADME, organism-based, Bone element; details: in vivo
Blood [10] = assay: Biodistribution in mouse blood at 444 kBq/50 uL after 30 mins; assay type: ADME, organism-based; details: in vivo, 0.5 h
Brain [11] = assay: Biodistribution in mouse brain at 444 kBq/50 uL after 30 mins; assay type: ADME, organism-based; details: in vivo, 0.5 h
Bone [12] = assay: Biodistribution in mouse bone at 444 kBq/50 uL after 30 mins; assay type: ADME, organism-based, Bone element; details: in vivo, 0.5 h
Blood [13] = assay: Biodistribution in mouse blood at 444 kBq/50 uL after 60 mins; assay type: ADME, organism-based; details: in vivo, 1 h
Brain [14] = assay: Biodistribution in mouse brain at 444 kBq/50 uL after 60 mins; assay type: ADME, organism-based; details: in vivo, 1 h
Bone [15] = assay: Biodistribution in mouse bone at 444 kBq/50 uL after 60 mins; assay type: ADME, organism-based, Bone element; details: in vivo, 1 h

Row | Ki [3] [nM] | Drug uptake (Blood [4]) [% ID/g] | Drug uptake (Brain [5]) [% ID/g] | Drug uptake (Bone [6]) [% ID/g] | Drug uptake (Blood [7]) [% ID/g] | Drug uptake (Brain [8]) [% ID/g] | Drug uptake (Bone [9]) [% ID/g] | Drug uptake (Blood [10]) [% ID/g] | Drug uptake (Brain [11]) [% ID/g] | Drug uptake (Bone [12]) [% ID/g] | Drug uptake (Blood [13]) [% ID/g] | Drug uptake (Brain [14]) [% ID/g] | Drug uptake (Bone [15]) [% ID/g] | Compound | Activity (Cortex) | Activity (Mus musculus [1]) | Activity (Mus musculus [2]) | Activity (Hippocampus)
1 | – | – | – | – | – | – | – | – | – | – | – | – | – | CN(C)c1ccc(-c2cc3cc(OCCOCCOCCF)ccc3o2)cn1 | Active | Active | Active | Active
2 | 0.9 | 2.83 | 5.16 | 1.61 | 2.13 | 3.75 | 1.33 | 1.76 | 2.78 | 1.11 | 1.98 | 2.44 | 1.42 | CN(C)c1ccc(-c2cc3cc(OCCOCCOCC[18F])ccc3o2)cn1 | – | – | – | –
